Reference: US20130244257A1, “INTEGRATED MICROFLUIDIC RADIOASSAY AND IMAGING PLATFORM FOR SMALL SAMPLE ANALYSIS” (THE REGENTS OF THE UNIVERSITY OF CALIFORNIA, priority 2010, published 2013)

System: BCR-ABL
Test: effect of the buffer surfactant on BCR-ABL kinase activity in the in vitro kinase radio assay
Assay type: biochemical
Details: 0.1% in all buffers
Experimental: Off-Chip And On-Chip In Vitro Kinase Radio Assays were performed for comparison. In vitro kinase assays were performed using established protocols for bead-based immunoaffinity capture of a specific kinase followed by kinase reactions in the presence of a kinase-specific peptide substrate and ^32P labeled ATP. The microfluidic on-chip assay was developed using reagents that were compatible and efficient in the context of microfluidic channels and valves. For the microfluidic assay, 0.1% n-dodecyl-beta-D-maltoside (DDM) was added to all buffers to prevent bead clumping (indicated by /DDM in the buffer name). […] For BCR-ABL kinase immunocapture, the off-chip assay used agarose protein NG beads (40-160 μm; Pierce, Rockford, Ill.) and the on-chip assay used smaller and more sturdy Protein G polystyrene beads (6.7 μm; Spherotech Inc., Lake Forest, Calif.). The large average size and fragility of the agarose beads precluded their use on-chip, and the small size of the polystyrene beads made them impractical for the pipeting-based off-chip assay. Both bead types were coated with anti-c-ABL antibody (OP20, EMD Chemicals).

CCCCCCCCCCCCO[C@@H]1O[C@H](CO)[C@@H](O[C@H]2O[C@H](CO)[C@@H](O)[C@H](O)[C@H]2O)[C@H](O)[C@H]1O [DDM, n-dodecyl-beta-D-maltoside]
effect on BCR-ABL kinase activity: no detectable effect
